# Structures can show the parent of a compound that is named as a salt.
# Target: T1, human neutrophil elastase (Homo sapiens, UniProt P08246)
# T1 sequence (P08246 30-267): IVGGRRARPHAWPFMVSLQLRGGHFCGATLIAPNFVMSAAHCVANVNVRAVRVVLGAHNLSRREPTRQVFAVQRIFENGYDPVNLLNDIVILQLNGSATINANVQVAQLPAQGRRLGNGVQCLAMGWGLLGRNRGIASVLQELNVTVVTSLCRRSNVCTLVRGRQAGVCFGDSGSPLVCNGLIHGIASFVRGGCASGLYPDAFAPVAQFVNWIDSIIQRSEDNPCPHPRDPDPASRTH
# Assay: In vitro assay of human neutrophil elastase (HNE)
# Format: biochemical
# Conditions: 118 nM purified human neutrophil elastase, pH 8.6, 15 min incubation at 30° C., MeO-succinyl-alanyl-alanyl-prolyl-valyl-p-nitroanilide substrate; read-out: HNE IC50
# Description: In Vitro Assays of Human Neutrophil Elastase
# 118 nM purified human neutrophil elastase
# Suitable concentrations of compound under test diluted with water from a 10 mM stock solution in dimethylsulphoxide. Values above are final concentrations after the addition of substrate solution (see below).
# The mixture above is incubated for fifteen minutes at 30° C. at which time the remaining elastase activity is measured for 10 minutes in a BioTek 340i plate-reader, after the addition of 0.6 mM MeO-succinyl-alanyl-alanyl-prolyl-valyl-p-nitroanilide. The rate of increase in absorbance at 405 nm is proportional to elastase activity. Enzyme activity is plotted against concentration of inhibitor and an IC50 determined using curve fitting software.
# 1. The compounds were tested in the in vitro elastase test described earlier in the description.
row,IC50 [µM],Compound
1,0.086,"CCC[C@H]1C(=O)N(S(=O)(=O)CC)[C@H]2CCN(S(=O)(=O)CCCN3CCCCC3)[C@H]12 (relative stereo) [Example 165, rel-(3R,3aR,6aS)-1-Ethanesulfonyl-4-(3-piperidin-1-yl-propane-1-sulfonyl)-3-propyl-hexahydro-pyrrolo[3,2-b]pyrrol-2-one DL-tartrate]"
2,0.089,"CCC[C@H]1C(=O)N(S(C)(=O)=O)[C@H]2CCN(C(=O)CCN3CCCC3)[C@H]12 (relative stereo) [Example 93, rel-(3R,3aR,6aS)-1-Methanesulfonyl-3-propyl-4-(3-pyrrolidin-1-yl-propionyl)-hexahydro-pyrrolo[3,2-b]pyrrol-2-one hydrochloride]"
3,0.102,"C/C=C/C(=O)N1CC[C@H]2[C@H]1[C@@H](CCC)C(=O)N2S(C)(=O)=O (relative stereo) [Example 131, rel-(3R,3aR,6aS)-4-But-2E-enoyl-1-methanesulfonyl-3-propyl-hexahydro-pyrrolo[3,2-b]pyrrol-2-one]"
4,0.176,"CCC[C@H]1C(=O)N(S(C)(=O)=O)[C@H]2CCN(C(=O)CCCCCN(CC)CC)[C@H]12 (relative stereo) [Example 76, rel-(3R,3aR,6aS)-4-(6-Diethylamino-hexanoyl)-1-methanesulfonyl-3-propyl-hexahydro-pyrrolo[3,2-b]pyrrol-2-one DL-tartrate]"
5,0.062,"CCC[C@H]1C(=O)N(S(C)(=O)=O)[C@H]2CCN(C(=O)c3ccccc3)[C@H]12 (relative stereo) [Example 233, rel-(3R,3aR,6aS)-4-Benzoyl-1-methanesulfonyl-3-propyl-hexahydro-pyrrolo[3,2-b]pyrrol-2-one]"
6,0.314,"CCC[C@H]1C(=O)N(S(C)(=O)=O)[C@H]2CCN(C(=O)CCCCCN3CCCCCC3)[C@H]12 [Example 115, (3R,3aR,6aS)-4-(6-Azepin-1-yl-hexanoyl)-1-methanesulfonyl-3-propyl-hexahydro-pyrrolo[3,2-b]pyrrol-2-one hydrochloride]"
7,0.096,"CCC[C@H]1C(=O)N(S(C)(=O)=O)[C@H]2CCN(C(=O)CN)[C@H]12 (relative stereo) [Example 109, rel-(3R,3aR,6aS)-4-Aminoacetyl-1-methanesulfonyl-3-propyl-hexahydro-pyrrolo[3,2-b]pyrrol-2-one trifluoroacetate]"
8,0.036,"C=CC[C@H]1C(=O)N(S(=O)(=O)c2ccc3ccccc3c2)[C@H]2CCN(C(=O)OCc3ccccc3)[C@H]12 (relative stereo) [Example 1, rel-(3aS,6R,6aR)-6-Allyl-4-(naphthalene-2-sulfonyl)-5-oxo-hexahydro-pyrrolo[3,2-b]pyrrole-1-carboxylic acid benzyl ester]"
9,0.038,"CCCCS(=O)(=O)N1C(=O)[C@H](CCC)[C@@H]2[C@@H]1CCN2S(=O)(=O)CCCN1CCCCC1 (relative stereo) [Example 167, rel-(3R,3aR,6aS)-1-(Butane-1-sulfonyl)-4-(3-piperidin-1-yl-propane-1-sulfonyl)-3-propyl-hexahydro-pyrrolo[3,2-b]pyrrol-2-one DL-tartrate]"
10,0.41,"CCC[C@H]1C(=O)N(S(C)(=O)=O)[C@H]2CCN(S(=O)(=O)c3cc(C(F)(F)F)cc(C(F)(F)F)c3)[C@H]12 (relative stereo) [Example 224, rel-(3R,3aR,6aS)-4-(3,5-Bis-trifluoromethyl-benzenesulfonyl)-1-methanesulfonyl-3-propyl-hexahydro-pyrrolo[3,2-b]pyrrol-2-one]"

# Same assay, conditions: HNE IC50, 118 nM purified human neutrophil elastase, pH 8.6, 15 min incubation at 30° C., MeO-succinyl-alanyl-alanyl-prolyl-valyl-p-nitroanilide substrate
row,Compound,IC50 [µM]
1,"CCC[C@H]1C(=O)N(S(C)(=O)=O)[C@H]2CCN(C(=O)CCCCCN3C4CCCC3CC4)[C@H]12 (relative stereo) [Example 75, rel-(3R,3aR,6aS)-4-(6-8-Aza-bicyclo[3.2. 1]oct-8-yl-hexanoyl)-1-methanesulfonyl-3-propyl-hexahydro-pyrrolo[3,2-b]pyrrol-2-one hydrochloride]",0.033

# — patent US6215002A, “Pyrrolopyrrolone derivatives as inhibitors of neutrophil elastase” (priority 1996, dated 2001)
